The values that follow come from patent publication US20230279004A1, “SOLID FORMS, SALTS, AND PROCESSES OF PREPARATION OF A CDK2 INHIBITOR” (Incyte Corporation, priority 2022, published 2023).

By IC50 is commonly meant the midpoint of a concentration-inhibition curve. Higher therefore signals a need for much substance. A word on the solubility: it is the dissolved amount per volume that the medium holds.

Series [1] concerns the target T1, CDK2/Cyclin E1 (Homo sapiens, UniProt P24941).
T1 construct: full-length human CDK2; GST (N); purchased Carna 04-165; host or cells: baculovirus expression system
In words: CDK2/Cyclin E1 HTRF enzyme activity assay. As to conditions: 1 mM ATP. The series is classed as biochemical. The protocol:
CDK2/Cyclin E1 enzyme activity assays utilize full-length human CDK2 co-expressed as N-terminal GST-tagged protein with FLAG-Cyclin E1 in a baculovirus expression system (Carna Product Number 04-165). Assays were conducted in white 384-well polystyrene plates in a final reaction volume of 8 μL. CDK2/Cyclin E1 (0.25 nM) was incubated with the compounds of the Examples (40 nL serially diluted in DMSO) in the presence of ATP (50 μM or 1 mM) and 50 nM ULight™-labeled eIF4E-binding protein 1 (THR37/46) peptide (PerkinElmer) in assay buffer (containing 50 mM HEPES pH 7.5, 1 mM EGTA, 10 mM MgCl2, 2 mM DTT, 0.05 mg/mL BSA, and 0.01% Tween 20) for 60 minutes at room temperature. The reactions were stopped by the addition of EDTA and Europium-labeled anti-phospho-4E-BP1 antibody (PerkinElmer), for a final concentration of 15 mM and 1.5 nM, respectively. HTRF signals were read after 1 hour at room temperature on a PHERAstar FS plate reader (BMG Labtech). Data was analyzed with IDBS XLFit and GraphPad Prism 5.0 software using a three or four parameter dose response curve to determine IC50 for each compound.
(In general: Time-resolved FRET reads energy transfer from a long-lived donor to a nearby acceptor.)

Series [2] in a line: Solid form change on heating (DSC). The series is classed as physicochemical. Here is the method: The DSC was obtained from TA Instruments Differential Scanning Calorimetry, Discovery DSC2500 with autosampler. The DSC instrument conditions were as follows: 20-300° C. at 10° C./min; Tzero aluminum sample pan and lid; and nitrogen gas flow at 50 mL/min.
When comparing the DSC of Form I and Form II, it was observed that Form II solids contained two peaks (FIG. 23), with the latter peak onset (≈191.0° C.) and Tmax (193.4° C.) similar to the peak onset and Tmax of Form I (FIG. 2).
The residual solvent could not be removed by conventional drying methods. […] The stoichiometric ratio of the compound of Formula (I) and 1,4-dioxane could be 4:1. The DSC of the solid (FIG. 26) contained a peak onset latter peak onset (≈192.6° C.) and Tmax (194.3° C.), which are similar to the peak onset (191.3° C.) and Tmax (193.3° C.) of Form I (FIG. 2).

A short description of series [3]: Phase equilibration (XRPD of equilibrated solid). The series is classed as physicochemical. The note with it: Form I stirred at 25° C. for 48 hours or 50° C. for 24 hours, all solvents tested (Table 9). The protocol: Phase equilibration studies were conducted to identify a predominant crystal form for phase identification. Based on its solubility in various solvent systems (Table 8), the compound of Formula (I) Form I was equilibrated in a representative groups of solvents at 25±1° C. and 50±1° C. To the solvents, the compound of Formula (I) Form I was added until a cloudy solution was obtained, then approximately 20 mg of the compound of Formula (I) Form I was added to the cloudy solution. The mixture was stirred at 25±1° C. or 50±1° C. for 48 hours or 24 hours, respectively. The solid was filtered, dried in vacuum, and analyzed by XRPD.

Series [4] is described as follows: Solubility measurement in various solvents (HPLC). As to conditions: for Solubility (25° C.) / solubility at 48 h: 48 h; for Solubility (50° C.) / solubility at 24 h: 24 h; for solubility at 48 h: 25 °C; for solubility at 48 h / solubility at 24 h: organic solvent or mixture; for solubility at 24 h: 50 °C. The series is classed as physicochemical. Here is the method: 5 mL of solvent (see Table 8) was added to the individual vials. The compound of Formula (I) Form I was added to the vials to get a cloudy solution at 25° C. Another approximately 20 mg of the compound of Formula (I) Form I was added to the cloudy solution. The mixture was agitated at 25±1° C. for 48 h, which was controlled by IKA® ETS-D5 temperature controller and IKA® RCT basic safety control. The supernatant was filtered using a syringe filter (0.22 μm). The saturated solution was pipetted into HPLC vials and diluted with MeOH or acetone.
The solubility measurement at 50° C. was performed according to the following procedure. 5 mL of solvent (see Table 8) was added to the individual vials. The compound of Formula (I) Form I was added to the vials to get a cloudy solution at 50° C. Another approximately 20-25 mg of the compound of Formula (I) Form I was added. The mixture was agitated at 50±1° C. for 24 h, which was controlled by IKA® ETS-D5 temperature controller and IKA® RCT basic safety control. The supernatant was filtered quickly using a warmed syringe filter (0.22 μm) at 50±1° C. The saturated solution was pipetted into HPLC vials and diluted with MeOH or acetone.

The mark [5] stands for this setting: 1,4-dioxane, thermodynamic from solid, 1,4-Dioxane.
[6] abbreviates: 2-methoxyethanol, thermodynamic from solid.
[7] abbreviates: chloroform, thermodynamic from solid.
Where [8] appears, read: dimethylformamide, thermodynamic from solid.
Where [9] appears, read: iso-butyl acetate, thermodynamic from solid.
[10] abbreviates: methyl ethyl ketone, thermodynamic from solid.
Where [11] appears, read: tetrahydrofuran (THF), thermodynamic from solid.

SMILES strings stand for the structures. Marks after values point to notes of the source that are not given here.

Take `CCOc1c(-c2cn[nH]c2)ccn2nc(N[C@H]3CCN(S(C)(=O)=O)C[C@H]3C)nc12` [Compound of Formula (I), 8-ethoxy-N-((3R,4S)-3-methyl-1-(methylsulfonyl)piperidin-4-yl)-7-(1H-pyrazol-4-yl)-[1,2,4]triazolo[1,5-a]pyridin-2-amine]: the IC50 in series [1] was no more than 20 nM.

For the molecule `CCOc1c(-c2cn[nH]c2)ccn2nc(N[C@H]3CCN(S(C)(=O)=O)C[C@H]3C)nc12` [Form II, 8-ethoxy-N-((3R,4S)-3-methyl-1-(methylsulfonyl)piperidin-4-yl)-7-(1H-pyrazol-4-yl)-[1,2,4]triazolo[1,5-a]pyridin-2-amine], the “Solid form change during the heating process” value in series [2] is “changed to Form I”.

As for `CCOc1c(-c2cn[nH]c2)ccn2nc(N[C@H]3CCN(S(C)(=O)=O)C[C@H]3C)nc12` [compound of Formula (I) Form I, 8-ethoxy-N-((3R,4S)-3-methyl-1-(methylsulfonyl)piperidin-4-yl)-7-(1H-pyrazol-4-yl)-[1,2,4]triazolo[1,5-a]pyridin-2-amine], the “Crystalline form for phase equilibration” value in series [3] was “crystalline Form I”. Further, the “Solubility (25° C.)” value in series [4] (1,4-Dioxane) is given as >50* mg/mL; in series [4] (2-Methoxyethanol) it was >50* mg/mL; in series [4] (Chloroform), >50* mg/mL; in series [4] (DMSO), >50* mg/mL; in series [4] (Dichloromethane) it was 18.5 mg/mL; in series [4] (Dimethylformamide), >50* mg/mL. The “Solubility (25° C.)” value in series [4] (MeOH) is reported as 18.7 mg/mL; in series [4] (Methyl ethyl ketone), 15.9 mg/mL; in series [4] (Tetrahydrofuran (THF)) it was >50* mg/mL; in series [4] (iso-Butyl acetate), 1.1 mg/mL; in series [4] (iso-Propyl acetate), 1.8 mg/mL. In addition, the “Solubility (50° C.)” value in series [4] (1,4-Dioxane, 50° C.) is reported as >50* mg/mL; in series [4] (2-Me THF/H2O/Heptane (1:1.5%:1), 50° C.) it was 0.6 mg/mL; in series [4] (2-Methoxyethanol, 50° C.), >50* mg/mL; in series [4] (2-Methyl THF, 50° C.), 18.7 mg/mL; in series [4] (3% water in EtOH, 50° C.) it was 20.0 mg/mL; in series [4] (Chloroform, 50° C.), >50* mg/mL. The “Solubility (50° C.)” value in series [4] (DMSO, 50° C.) is listed as >50* mg/mL; in series [4] (Dimethylformamide, 50° C.), >50* mg/mL; in series [4] (EtOH, 50° C.), 15.7 mg/mL; in series [4] (Ethyl formate, 50° C.), 15.2 mg/mL; in series [4] (Methyl ethyl ketone, 50° C.), 25.3 mg/mL; in series [4] (Tetrahydrofuran (THF), 50° C.) it was >50* mg/mL. The “Solubility (50° C.)” value in series [4] (Toluene, 50° C.) came to 0.5 mg/mL; in series [4] (iso-Butyl acetate, 50° C.) it was 1.6 mg/mL. The solubility at 48 h in series [4] (setting [5]) was greater than 50 mg/mL; in series [4] (setting [6]), greater than 50 mg/mL; in series [4] (DMSO, thermodynamic from solid), greater than 50 mg/mL; in series [4] (MeOH, thermodynamic from solid), 15 to 50 mg/mL; in series [4] (setting [7]), greater than 50 mg/mL; in series [4] (dichloromethane, thermodynamic from solid), 15 to 50 mg/mL. The solubility at 48 h is greater than 50 mg/mL in series [4] (setting [8]); 1 to 15 mg/mL in series [4] (setting [9]); 1 to 15 mg/mL in series [4] (iso-propyl acetate, thermodynamic from solid); 15 to 50 mg/mL in series [4] (setting [10]); greater than 50 mg/mL in series [4] (setting [11]). For the same molecule, the solubility at 24 h in series [4] (setting [5]) was greater than 50 mg/mL; in series [4] (2-Me THF/H2O/heptane (1:1.5%:1), thermodynamic from solid, 2-Me THF/H2O/Heptane (1:1.5%:1), 50° C.), less than 1 mg/mL; in series [4] (setting [6]) it was greater than 50 mg/mL; in series [4] (2-methyl THF, thermodynamic from solid) it was 15 to 50 mg/mL; in series [4] (3% water in EtOH, thermodynamic from solid), 15 to 50 mg/mL; in series [4] (DMSO, thermodynamic from solid) it was greater than 50 mg/mL. The solubility at 24 h in series [4] (EtOH, thermodynamic from solid) is 15 to 50 mg/mL; in series [4] (setting [7]) it was greater than 50 mg/mL; in series [4] (setting [8]), greater than 50 mg/mL; in series [4] (ethyl formate, thermodynamic from solid), 15 to 50 mg/mL; in series [4] (setting [9]) it was 1 to 15 mg/mL; in series [4] (setting [10]) it was 15 to 50 mg/mL. Besides, the solubility at 24 h was greater than 50 mg/mL in series [4] (setting [11]) and less than 1 mg/mL in series [4] (toluene, thermodynamic from solid).
